From patent US20250213719A1, “MAGNETIC NANOPARTICLES AND METHODS OF DRUG RELEASE” (University of Notre Dame du Lac, priority 2022, published 2025)
Where “and” joins values, the source holds several entries; their conditions need not be identical. Identical values can stand only once. Like-named read-outs stand apart in the source and are kept apart here.

Tests used:
Type in all cases: cell-based
[1] = system: MDA-MB-231 triple-negative breast cancer cells; conditions: free or released from Dox-MagSiNs by AC magnetic field
Method: (§1) The media in each well of the chamber slides was carefully aspirated, and the wells were rinsed twice with 400 μL of 1×PBS. The cells were incubated with Ethidium-homodimer Ill dye and Calcein-AM dye mix at manufacturer recommended concentrations (Life-technologies), and the slides were incubated for 30 minutes in the cell incubator, in the dark. After incubation, the wells were rinsed twice with 400 μL of 1×PBS. Lastly, 300 μL of 4% buffered parafomaldehyde was added to each well, and the slides were taken to be imaged with a NikonU inverted fluorescent microscope with a 10× lens using a standard FITC/RITC green and red fluorescent filter cubes.
Viable cell populations of treated and untreated control cancer cell lines and treated and untreated normal cell lines were determined at the end of each run using a calcein-AM/propidium iodide assay to determine total cells and viable cell populations. […] When PI does gain access to nucleic acids and intercalates, its fluorescence increases dramatically and is therefore used to identify dead cells. […]
In this study, for each sample set (control group or test group), the total number of cells with green fluorescence and the total number of cells with red fluorescence were counted as separate datasets. […] For each sample set, the percent dead-cells and percent live-cells was calculated. […]

[2] = system: PC-3 prostate cancer cells; assay: Live/dead cell viability assay; conditions: 500 nM Dox, free or released from Dox-MagSiNs by AC magnetic field, hydrochloride
Method: as §1
(§2) Viable cell populations of treated and untreated control cancer cell lines and treated and untreated normal cell lines were determined at the end of each run using a calcein-AM/propidium iodide assay to determine total cells and viable cell populations. The calcein-AM assay is based on the conversion of the cell permeant non-fluorescent calcein-AM dye to the fluorescent calcein dye by intracellular esterase activity in live cells. […] When PI does gain access to nucleic acids and intercalates, its fluorescence increases dramatically and is therefore used to identify dead cells. Calcein-Am and PI can be used separately or together to assess cellular viability or cell death, respectively.
(§3) In this study, for each sample set (control group or test group), the total number of cells with green fluorescence and the total number of cells with red fluorescence were counted as separate datasets. […] For each sample set, the percent dead-cells and percent live-cells was calculated. The percent live-cells was used as a measure of viability. A paired t-test under the assumption of comparing two-samples with equal variances and a >=0.05 was used to determine the statistical significance of the test-groups in comparison to the control groups.
(§4) A unidirectional magnetic field of 30-50 Gauss and an alternating magnetic field of 100 Hz, 30-50 Gauss were used for these experiments.

[3] = system: HUVEC cells; assay: Live/dead cell viability assay; conditions: free or released from Dox-MagSiNs by AC magnetic field, permanent magnet 24 h then AC field 10 h, assay at 48 h
Method: as §1, §2, §3, §4

[4] = system: A2780 ovarian cancer cells; assay: Live/dead cell viability assay; conditions: free or released from Dox-MagSiNs by AC magnetic field
Method: as §1, §2, §3, §4

## COc1cccc2c1C(=O)c1c(O)c3c(c(O)c1C2=O)C[C@@](O)(C(=O)CO)C[C@@H]3O[C@H]1C[C@H](N)[C@H](O)[C@H](C)O1.Cl [Dox·HCl, doxorubicin hydrochloride]
[1]; 20 nM Dox
  cell death: insignificant cell death
[1]; 500 nM Dox
  cell death: 4%
[2]
  cell death: 100%
[2]; listed as Dox
  cell death: 100% and > 95%
[3]; 20 nM Dox·HCl
  cell death: 100%
[3]; 500 nM Dox·HCl
  cell death: 100%
[4]; 20 nM Dox
  cell death: > 20%
[4]; 500 nM Dox, hydrochloride
  cell death: 83%
[4]; 500 nM Dox, listed as Dox, hydrochloride
  cell death: 83% and 80-85%
